Like-named read-outs stand apart in the source and are kept apart here. Positions of bridges follow the written chain, without caps; N, C: chain ends. Non-standard residues stand in square brackets, D forms with d. Residues, ends and D or L forms follow the SMILES beside them. *: point of attachment. Palmitoyl = CCCCCCCCCCCCCCCC(=O)*; AEEA = NCCOCCOCC(=O)O
Experiments:
CLR/RAMP1 receptor = CLR/RAMP1 receptor (Homo sapiens, UniProt O60894+Q16602); assay: CLR/RAMP1 cAMP receptor activation assay (agonist); format: cell-based; parameters: host or cells: 1321N1 cells; settings: % of positive control (β-CGRP)
CLR/RAMP1 receptor, sequence (Q16602 23-461): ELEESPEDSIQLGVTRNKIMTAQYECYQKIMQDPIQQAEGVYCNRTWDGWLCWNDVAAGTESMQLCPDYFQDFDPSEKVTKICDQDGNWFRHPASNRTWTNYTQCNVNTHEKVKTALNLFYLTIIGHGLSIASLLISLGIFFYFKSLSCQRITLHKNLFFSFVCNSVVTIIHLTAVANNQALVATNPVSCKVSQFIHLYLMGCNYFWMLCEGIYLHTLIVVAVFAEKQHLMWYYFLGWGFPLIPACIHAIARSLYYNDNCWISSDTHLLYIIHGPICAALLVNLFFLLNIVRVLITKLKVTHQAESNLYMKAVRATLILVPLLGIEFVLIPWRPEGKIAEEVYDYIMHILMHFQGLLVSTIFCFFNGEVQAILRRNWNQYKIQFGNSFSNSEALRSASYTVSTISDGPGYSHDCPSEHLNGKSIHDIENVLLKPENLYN
CLR/RAMP1 receptor, sequence (O60894 27-148): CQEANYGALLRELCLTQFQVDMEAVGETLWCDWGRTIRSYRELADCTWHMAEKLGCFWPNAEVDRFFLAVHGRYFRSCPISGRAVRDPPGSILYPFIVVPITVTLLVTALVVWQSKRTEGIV

CLR/RAMP2 receptor = biological target: T1, CLR/RAMP2 receptor (Homo sapiens, UniProt O60895+Q16602); assay: CLR/RAMP2 arrestin receptor activation assay (agonist); format: cell-based; settings: for Emax: CHO-K1, read-out: CLR/RAMP 2 Max Activity % of positive control, CHO-K1 cells, % of positive control (ADM)
T1 construct: host or cells: CHO-K1 cells
T1 sequence (Q16602 23-461): as the sequence (Q16602 23-461) above
T1 sequence (O60895 43-175): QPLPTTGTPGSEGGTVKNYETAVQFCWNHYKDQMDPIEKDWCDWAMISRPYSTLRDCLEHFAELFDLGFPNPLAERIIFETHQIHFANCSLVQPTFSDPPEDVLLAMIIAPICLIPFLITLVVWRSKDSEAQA
Description: Using a receptor activation assay, the dose-dependent stimulatory response of peptide agonists of the present invention on a CLR/RAMP1 receptor, a CLR/RAMP2, or a CLR/RAMP3 receptor complex was determined. A cell line carrying the recombinant CLR/RAMP1, CLR/RAMP2, or a CLR/RAMP3 receptor was employed in the assay. Peptide agonist activities were tested, in duplicate, at 10 different concentrations, starting with 1.0 μM and serially diluted 3-fold, in DMSO. […] The CLR/RAMP1 cAMP, CLR/RAMP2 arrestin assays, and CLR/RAMP3 cAMP (DiscoveRx, Fremont, Calif.) were used.

[1] = 1321-N1, read-out: CLR/RAMP 1 Max Activity % of positive control, 1321N1 cells

Row | SMILES | Emax (CLR/RAMP1 receptor; [1]) [%] | Emax (CLR/RAMP2 receptor) [%] | receptor specificity of agonist (CLR/RAMP2 receptor; CLR/RAMP2 versus CLR/RAMP1) | Emax (CLR/RAMP1 receptor; 1321-N1, 1321N1 cells, read-out: CLR/RAMP 1 Max Activity % of positive control) [%]
1 | CCCCCCCCCCCCCCCC(=O)NCCCC[C@H](NC(=O)COCCOCCN)C(=O)NCC(=O)N[C@H]1CSSC[C@@H](C(=O)N[C@H](C(=O)N[C@H](C(=O)N[C@@H](CCC(N)=O)C(=O)N[C@@H](CCCCN)C(=O)N[C@@H](CC(C)C)C(=O)N[C@@H](C)C(=O)N[C@@H](Cc2c[nH]cn2)C(=O)N[C@@H](CCC(N)=O)C(=O)N[C@H](C(=O)N[C@@H](Cc2ccc(O)cc2)C(=O)N[C@@H](CCC(N)=O)C(=O)N[C@@H](Cc2ccccc2)C(=O)N[C@H](C(=O)N[C@@H](CC(=O)O)C(=O)N[C@@H](CCCCN)C(=O)N[C@@H](CC(=O)O)C(=O)N[C@@H](CCCCN)C(=O)N[C@@H](CC(=O)O)C(=O)N[C@@H](CO)C(=O)N[C@@H](C)C(=O)N2CCC[C@H]2C(=O)N[C@H](C(=O)N[C@@H](CC(=O)O)C(=O)N2CCC[C@H]2C(=O)N[C@@H](CO)C(=O)N[C@@H](CO)C(=O)N2CCC[C@H]2C(=O)N[C@@H](Cc2c[nH]cn2)C(=O)N[C@@H](CO)C(=O)N[C@@H](Cc2ccc(O)cc2)C(N)=O)C(C)C)[C@@H](C)O)[C@@H](C)CC)C(C)C)[C@@H](C)O)NC(=O)[C@H]([C@@H](C)O)NC(=O)CNC(=O)[C@H](Cc2ccccc2)NC(=O)[C@H](CCCNC(=N)N)NC1=O [SEQ ID NO: 46] (H-[AEEA]K(Palmitoyl)GCRFGTCTVQKLAHQIYQFTDKDKDSAPVDPSSPHSY-NH2; disulfide 4-9) | 60 | 104 | – | –
2 | CCCCCCCCCCCCCCCC(=O)NCCCC[C@H](NC(=O)COCCOCCN)C(=O)NCC(=O)N[C@H]1CSSC[C@@H](C(=O)N[C@H](C(=O)N[C@H](C(=O)N[C@@H](CCC(N)=O)C(=O)N[C@@H](CCCCN)C(=O)N[C@@H](CC(C)C)C(=O)N[C@@H](C)C(=O)N[C@@H](Cc2c[nH]cn2)C(=O)N[C@@H](CCC(N)=O)C(=O)N[C@H](C(=O)N[C@@H](Cc2ccc(O)cc2)C(=O)N[C@@H](CCC(N)=O)C(=O)N[C@@H](Cc2ccccc2)C(=O)N[C@H](C(=O)N[C@@H](CC(=O)O)C(=O)N[C@@H](CCCCN)C(=O)N[C@@H](CC(=O)O)C(=O)N[C@@H](CCCCN)C(=O)N[C@@H](CC(=O)O)C(=O)N[C@@H](CC(N)=O)C(=O)N[C@H](C(=O)N[C@@H](CC(=O)O)C(=O)N2CCC[C@H]2C(=O)N[C@@H](CO)C(=O)N[C@@H](CO)C(=O)N2CCC[C@H]2C(=O)N[C@@H](Cc2c[nH]cn2)C(=O)N[C@@H](CO)C(=O)N[C@@H](Cc2ccc(O)cc2)C(N)=O)C(C)C)[C@@H](C)O)[C@@H](C)CC)C(C)C)[C@@H](C)O)NC(=O)[C@H]([C@@H](C)O)NC(=O)CNC(=O)[C@H](Cc2ccccc2)NC(=O)[C@H](CCCNC(=N)N)NC1=O [SEQ ID NO: 94] | 67 | 82 | CLR/RAMP2-specific | –
3 | CCCCCCCCCCCCCCCC(=O)NCCCC[C@H](NC(=O)COCCOCCN)C(=O)NCC(=O)N[C@H]1CSSC[C@@H](C(=O)N[C@H](C(=O)N[C@H](C(=O)N[C@@H](CCC(N)=O)C(=O)N[C@@H](CCCCN)C(=O)N[C@@H](CC(C)C)C(=O)N[C@@H](C)C(=O)N[C@@H](Cc2c[nH]cn2)C(=O)N[C@@H](CCC(N)=O)C(=O)N[C@H](C(=O)N[C@@H](Cc2ccc(O)cc2)C(=O)N[C@@H](CCC(N)=O)C(=O)N[C@@H](Cc2ccccc2)C(=O)N[C@H](C(=O)N[C@@H](CC(=O)O)C(=O)N[C@@H](CCCCN)C(=O)N[C@@H](CC(=O)O)C(=O)N[C@@H](CCCCN)C(=O)N[C@@H](CC(=O)O)C(=O)N[C@@H](CC(N)=O)C(=O)N[C@H](C(=O)N[C@@H](C)C(=O)N2CCC[C@H]2C(=O)N[C@@H](CCCNC(=N)N)C(=O)N[C@@H](CO)C(=O)N[C@@H](CCCCN)C(=O)N[C@@H](CO)C(=O)N[C@@H](CO)C(=O)N2CCC[C@H]2C(=O)N[C@@H](Cc2c[nH]cn2)C(=O)N[C@@H](CO)C(=O)N[C@@H](Cc2ccc(O)cc2)C(N)=O)C(C)C)[C@@H](C)O)[C@@H](C)CC)C(C)C)[C@@H](C)O)NC(=O)[C@H]([C@@H](C)O)NC(=O)CNC(=O)[C@H](Cc2ccccc2)NC(=O)[C@H](CCCNC(=N)N)NC1=O [SEQ ID NO: 61] | 70 | 92 | – | –
4 | CCCCCCCCCCCCCCCC(=O)NCCCC[C@H](NC(=O)COCCOCCN)C(=O)NCC(=O)N[C@H]1CSSC[C@@H](C(=O)N[C@H](C(=O)N[C@H](C(=O)N[C@@H](CCC(N)=O)C(=O)N[C@@H](CCCCN)C(=O)N[C@@H](CC(C)C)C(=O)N[C@@H](C)C(=O)N[C@@H](Cc2c[nH]cn2)C(=O)N[C@@H](CCC(N)=O)C(=O)N[C@H](C(=O)N[C@@H](Cc2ccc(O)cc2)C(=O)N[C@@H](CCC(N)=O)C(=O)N[C@@H](Cc2ccccc2)C(=O)N[C@H](C(=O)N[C@@H](CC(=O)O)C(=O)N[C@@H](CCCCN)C(=O)N[C@@H](CC(=O)O)C(=O)N[C@@H](CCCCN)C(=O)N[C@@H](CCC(N)=O)C(=O)N[C@@H](CC(=O)O)C(=O)N[C@@H](CO)C(=O)N[C@@H](C)C(=O)N2CCC[C@H]2C(=O)N[C@H](C(=O)N[C@@H](CC(=O)O)C(=O)N2CCC[C@H]2C(=O)N[C@@H](CO)C(=O)N[C@@H](CO)C(=O)N2CCC[C@H]2C(=O)N[C@@H](Cc2c[nH]cn2)C(=O)N[C@@H](CO)C(=O)N[C@@H](Cc2ccc(O)cc2)C(N)=O)C(C)C)[C@@H](C)O)[C@@H](C)CC)C(C)C)[C@@H](C)O)NC(=O)[C@H]([C@@H](C)O)NC(=O)CNC(=O)[C@H](Cc2ccccc2)NC(=O)[C@H](CCCNC(=N)N)NC1=O [SEQ ID NO: 51] (H-[AEEA]K(Palmitoyl)GCRFGTCTVQKLAHQIYQFTDKDKQDSAPVDPSSPHSY-NH2; disulfide 4-9) | 65 | 107 | – | –
5 | CSCC[C@H](NC(=O)[C@H](CC(C)C)NC(=O)[C@H](CCC(N)=O)NC(=O)[C@H](Cc1c[nH]c2ccccc12)NC(=O)[C@H](CC(C)C)NC(=O)[C@H](Cc1c[nH]cn1)NC(=O)[C@H](C)NC(=O)[C@H](CC(C)C)NC(=O)[C@H](CCCCN)NC(=O)[C@H](CCC(N)=O)NC(=O)[C@@H](NC(=O)[C@@H](NC(=O)[C@@H]1CSSC[C@H](NC(=O)CNC(=O)[C@@H](NC(C)=O)C(C)C)C(=O)N[C@@H](CCCNC(=N)N)C(=O)N[C@@H](Cc2ccccc2)C(=O)NCC(=O)N[C@@H]([C@@H](C)O)C(=O)N1)[C@@H](C)O)C(C)C)C(=O)NCC(=O)N1CCC[C@H]1C(=O)N[C@@H](C)C(=O)NCC(=O)N[C@@H](CCCNC(=N)N)C(=O)N[C@@H](CCC(N)=O)C(=O)N[C@@H](CC(=O)O)C(=O)N[C@@H](CO)C(=O)N[C@@H](C)C(=O)N1CCC[C@H]1C(=O)N[C@H](C(=O)N[C@@H](CC(=O)O)C(=O)N1CCC[C@H]1C(=O)N[C@@H](CO)C(=O)N[C@@H](CO)C(=O)N1CCC[C@H]1C(=O)N[C@@H](Cc1c[nH]cn1)C(=O)N[C@@H](CO)C(=O)N[C@@H](Cc1ccc(O)cc1)C(N)=O)C(C)C [SEQ ID NO: 58] | 0 | – | – | –
6 | CCCCCCCCCCCCCCCC(=O)NCCCC[C@H](NC(=O)COCCOCCN)C(=O)NCC(=O)N[C@H]1CSSC[C@@H](C(=O)N[C@H](C(=O)N[C@H](C(=O)N[C@@H](CCC(N)=O)C(=O)N[C@@H](CCCCN)C(=O)N[C@@H](CC(C)C)C(=O)N[C@@H](C)C(=O)N[C@@H](Cc2c[nH]cn2)C(=O)N[C@@H](CCC(N)=O)C(=O)N[C@H](C(=O)N[C@@H](Cc2ccc(O)cc2)C(=O)N[C@@H](CCC(N)=O)C(=O)N[C@@H](Cc2ccccc2)C(=O)N[C@H](C(=O)N[C@@H](CC(=O)O)C(=O)N[C@@H](CCCCN)C(=O)NCC(=O)N[C@@H](CCCNC(=N)N)C(=O)N[C@@H](CCC(N)=O)C(=O)N[C@@H](CC(=O)O)C(=O)N[C@@H](CO)C(=O)N[C@@H](C)C(=O)N2CCC[C@H]2C(=O)N[C@H](C(=O)N[C@@H](CC(=O)O)C(=O)N2CCC[C@H]2C(=O)N[C@@H](CO)C(=O)N[C@@H](CO)C(=O)N2CCC[C@H]2C(=O)N[C@@H](Cc2c[nH]cn2)C(=O)N[C@@H](CO)C(=O)N[C@@H](Cc2ccc(O)cc2)C(N)=O)C(C)C)[C@@H](C)O)[C@@H](C)CC)C(C)C)[C@@H](C)O)NC(=O)[C@H]([C@@H](C)O)NC(=O)CNC(=O)[C@H](Cc2ccccc2)NC(=O)[C@H](CCCNC(=N)N)NC1=O [SEQ ID NO: 68] | – | 70 | – | –
7 | CSCC[C@H](NC(=O)CNC(=O)CNC(=O)[C@H](CO)NC(=O)[C@H](CCCNC(=N)N)NC(=O)[C@H](CO)NC(=O)[C@H](CC(C)C)NC(=O)[C@H](CC(C)C)NC(=O)CNC(=O)[C@H](C)NC(=O)[C@H](CC(C)C)NC(=O)[C@H](CCCNC(=N)N)NC(=O)[C@H](Cc1c[nH]cn1)NC(=O)[C@@H](NC(=O)[C@@H](NC(=O)[C@@H]1CSSC[C@H](NC(=O)[C@H](C)N)C(=O)N[C@@H](CC(N)=O)C(=O)N[C@@H]([C@@H](C)O)C(=O)N[C@@H](C)C(=O)N[C@@H]([C@@H](C)O)C(=O)N1)C(C)C)[C@@H](C)O)C(=O)N[C@H](C(=O)N[C@@H](CCCCN)C(=O)N[C@@H](CO)C(=O)N[C@@H](CC(N)=O)C(=O)N[C@@H](Cc1ccccc1)C(=O)N[C@H](C(=O)N1CCC[C@H]1C(=O)N[C@H](C(=O)N[C@@H](CC(N)=O)C(=O)N[C@H](C(=O)NCC(=O)N[C@@H](CO)C(=O)N[C@@H](CCCCN)C(=O)N[C@@H](C)C(=O)N[C@@H](Cc1ccccc1)C(N)=O)C(C)C)[C@@H](C)O)C(C)C)C(C)C [Wild type CGRP-β positive, reference compound] | – | – | – | 100

Source: US20220340633A1 (Adepthera LLC, priority 2016, published 2022)
